This note sets out measurements from patent US8541406B2, “Thiadiazole derivatives for the treatment of neurodegenerative diseases” (NV reMYND, priority 2006, dated 2013).

One test deals with M17-SYNwt cells. As to the kind of experiment: α-synuclein cytotoxicity assay (LDH leakage from paraquat-treated cells). The test is classed as cell-based, human. The conditions noted are these: Homo sapiens; inhibition of synuclein cytotoxicity, paraquat-treated M17-SYNwt cells, 10 point curves in duplicate. On the procedure:
1,2,4-thiadazole compounds made according to the methods described herein were screened for activity using the α-synuclein cytotoxicity assay as described above. Dose responses were carried out on all compounds found to be active (10 point curves in duplicate).

Test [1] relates to dopaminergic substantia nigra neurons. Description: In vivo inhibition of paraquat-triggered loss of substantia nigra neurons (TH immunohistochemistry). Particulars: mice, paraquat intraperitoneal, compound not higher than 20 mg/kg body weight/day, 8 weeks, versus vehicle. On the procedure:
In order to model neuronal loss in the substantia nigra region of the brain, mice were treated with paraquat (intraperitoneal) at a dose not higher than 8 mg/kg/day for a continuous period of 15-100 days. These mice were also chronically co-treated during that period with: • compound 60 (1-[4-methoxyphenylsulfonyl]-4-[3-(4-methylbenzyl)-1,2,4-thiadiazol-5-yl]-2-methylpiperazine), or • compound 32 (1-[4-methoxyphenylsulfonyl]-4-[3-(4-fluorobenzyl)-1,2,4-thiadiazol-5-yl]piperazine), or • compound 53 (1-[4-methoxyphenylsulfonyl]-4-[3-(3-methoxy-benzyl)-1,2,4-thiadiazol-5-yl]piperazine), each being administered at a dose not higher than 20 mg/kg body weight/day), or by vehicle only (no active compound). Mice treatment by means of vehicle or a compound of the invention started 2 days before administration of paraquat.
At the end of the treatment period, mice were sacrificed and the corresponding brains were used for immunohistochemical analysis. […] Using antibodies raised against tyrosin hydroxylase (anti-tyrosin hydroxylase), tyrosine hydroxylase containing neurons in the brains were detected.
Three groups of mice were treated with either paraquat and compound 53 (group 3; n=6), or paraquat and vehicle of compound 53 (group 2; n=4), or vehicle paraquat and vehicle of compound 53 (group 1; n=3). […] Per mouse, the median % TH-positive areas (of the substantia nigra regions) was determined. […]

Values after ≈ are worked out from the molar mass of the structure shown. “Also recorded” adds a separate entry of the source.

Compound `COc1ccc(S(=O)(=O)N2CCN(c3nc(Cc4cccc(OC)c4)ns3)CC2)cc1` [Compound 53, 1-[4-methoxyphenylsulfonyl]-4-[3-(3-methoxybenzyl)-1,2,4-thiadiazol-5-yl]piperazine] displayed an EC50 with M17-SYNwt cells of 0.66 ng/mL (≈ 1.43 nM). The “protection of TH-positive substantia nigra area against paraquat-triggered degeneration” value in test [1] is “inhibition of paraquat-triggered degeneration of substantia nigra cells; also recorded: protects dopaminergic substantia nigra neurons against paraquat-triggered degeneration”.
